This experiment concerns the target T1, S1P1 receptor (S1P1 expressing RH7777 membranes) (Homo sapiens, UniProt P21453).
T1 construct: expressed in transfected cells; host or cells: RH7777 cells (membranes)
As to the kind of experiment: S1P1 GTPγS assay. It counts as biochemical. On the procedure: The potencies and efficacies of the compounds of this invention for the S1P1 receptor can be determined by GTPγS assay performed on the human cloned receptor as described herein.
Membrane preparation for S1P1 GTPγS assay
All steps were performed at 4° C. Cells were homogenised within a glass Waring blender for 2 bursts of 15 secs in 200 mls of buffer (50 mM HEPES, 1 mM leupeptin, 25 μg/ml bacitracin, 1 mM EDTA, 1 mM PMSF, 2 μM pepstatin A). The blender was plunged into ice for 5 mins after the first burst and 10-40 mins after the final burst to allow foam to dissipate. The material was then spun at 500 g for 20 mins and the supernatant spun for 36 mins at 48,000 g. The pellet was resuspended in the same buffer as above but without PMSF and pepstatin A. The material was then forced through a 0.6 mm needle, made up to the required volume, (usually x4 the volume of the original cell pellet), aliquoted and stored frozen at −80° C.
S1P1 expressing RH7777 membranes (1.5 μg/well) membranes (1.5 μg/well) were homogenised by passing through a 23 G needle. These were then adhered to WGA-coated SPA beads (0.125 mg/well) in assay buffer (HEPES 20 mM, MgCl2 10 mM, NaCl 100 mM and pH adjusted to 7.4 using KOH 5M). GDP 10 μM FAC and saponin 90 μg/ml FAC were also added
After 30 minutes precoupling on ice, the bead and membrane suspension was dispensed into white Greiner polypropylene LV 384-well plates (5 μl/well), containing […] of compound. 5 μl/well [^35S]-GTPγS (0.5 nM for S1P1 or 0.3 nM for S1P3 final radioligand concentration) made in assay buffer was then added to the plates. The final assay cocktail (10.1 μl) was then sealed, spun on a centrifuge, then read immediately on a Viewlux instrument.
Alternatively, after 30 minutes precoupling on ice, the bead and membrane suspension was mixed with ^35S]-GTPγS (0.5 nM final radioligand concentration) in assay buffer (HEPES 20 mM, MgCl2 10 mM, NaCl 100 mM and pH adjusted to 7.4 using KOH 5M) in a 1:1 ratio. The bead, membrane and radioligand suspension was dispensed into white Greiner polypropylene low volume 384-well plates (10 μl/well), containing 0.1 μl of a solution of test compound in 100% DMSO. The final assay cocktail (10.1 μl) was then sealed, spun on a centrifuge, then read immediately on a Viewlux instrument.

Where [1] appears, read: tested in one of the above S1P1 assays (two GTPγS formats).

SMILES strings stand for the structures. Counter-ions that a name gives are not always drawn.

T1 sequence (P21453 whole entry): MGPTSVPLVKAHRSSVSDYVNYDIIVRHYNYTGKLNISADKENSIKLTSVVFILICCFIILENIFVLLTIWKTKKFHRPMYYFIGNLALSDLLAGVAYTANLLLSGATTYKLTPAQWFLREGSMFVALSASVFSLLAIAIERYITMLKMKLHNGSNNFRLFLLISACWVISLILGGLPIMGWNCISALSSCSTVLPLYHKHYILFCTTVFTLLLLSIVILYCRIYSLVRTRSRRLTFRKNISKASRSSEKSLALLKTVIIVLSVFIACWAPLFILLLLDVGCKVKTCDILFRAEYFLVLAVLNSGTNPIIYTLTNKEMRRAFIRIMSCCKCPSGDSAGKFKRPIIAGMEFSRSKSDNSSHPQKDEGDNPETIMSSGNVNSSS

Usually EC50 stands for the concentration that produces a half-maximal response. The low end stands for an effect from little substance, the high end for a need for much substance. In the case of `CCCOc1ccc(-c2nc(-c3ccc4c(c3)CCN(CC(O)CO)CC4)no2)cc1C#N` (stereo not drawn) [Example 51, 5-{3-[3-(2,3-dihydroxypropyl)-2,3,4,5-tetrahydro-1H-3-benzazepin-7-yl]-1,2,4-oxadiazol-5-yl}-2-(propyloxy)benzonitrile], the concentration for a half-maximal effect (EC50) under setting [1] was at most 100 nM.
Same read-out and setting: next, `CC(C)Oc1ccc(-c2nnc(-c3cccc4c3CCN(CCC(=O)N(C)C)C4)s2)cc1C#N` [Example 46, 3-[5-(5-{3-cyano-4-[(1-methylethyl)oxy]phenyl}-1,3,4-thiadiazol-2-yl)-3,4-dihydro-2(1H)-isoquinolinyl]-N,N-dimethylpropanamide]: at most 1000 nM; `CC(C)Oc1ncc(-c2nc(-c3ccc4c(c3)CCN(C[C@H](O)CO)CC4)no2)cc1C#N` [Example 96, 5-(3-{3-[(2S)-2,3-dihydroxypropyl]-2,3,4,5-tetrahydro-1H-3-benzazepin-7-yl}-1,2,4-oxadiazol-5-yl)-2-[(1-methylethyl)oxy]-3-pyridinecarbonitrile]: at most 10 nM.
Still for that read-out and setting: the figure for `N#Cc1cc(-c2nc(-c3ccc4c(c3)CCN(C(=O)CN)CC4)no2)ccc1N1CC(F)C1` [Example 94, 2-(3-fluoro-1-azetidinyl)-5-[3-(3-glycyl-2,3,4,5-tetrahydro-1H-3-benzazepin-7-yl)-1,2,4-oxadiazol-5-yl]benzonitrile] is at most 1000 nM; for `COCCN1CCc2c(ccc(-c3nnc(-c4ccc(OC(C)C)c(C#N)c4)s3)c2C)C1` [Example 17, 2-[(1-Methylethyl)oxy]-5-(5-{5-methyl-2-[2-(methyloxy)ethyl]-1,2,3,4-tetrahydro-6-isoquinolinyl}-1,3,4-thiadiazol-2-yl)benzonitrile hydrochloride] it is at most 1000 nM.
Molecule `CC(C)Oc1ccc(-c2nnc(-c3ccc4c(c3)CCN(CCO)CC4)s2)cc1C#N` [Example 28, 5-{5-[3-(2-Hydroxyethyl)-2,3,4,5-tetrahydro-1H-3-benzazepin-7-yl]-1,3,4-thiadiazol-2-yl}-2-[(1-methylethyl)oxy]benzonitrile hydrochloride] had a concentration giving a half-maximal response (EC50) under setting [1] of at most 1000 nM.
Still for that read-out and setting: next, `CC(C)Oc1ccc(-c2nc(-c3ccc4c(c3)CCN(C(=O)CN[C@H](C)CO)CC4)no2)cc1C#N` [Example 98, 5-[3-(3-{N-(1R)-2-hydroxy-1-methylethyl]glycyl}-2,3,4,5-tetrahydro-1H-3-benzazepin-7-yl)-1,2,4-oxadiazol-5-yl]-2-[(1-methylethyl)oxy]benzonitrile hydrochloride]: at most 10 nM.
Same read-out and setting: the figure for `Cc1c(-c2nnc(-c3ccc(OC(C)C)c(C#N)c3)s2)ccc2c1CCN(CCCC(N)=O)C2` [Example 13, 4-[6-(5-{3-Cyano-4-[(1-methylethyl)oxy]phenyl}-1,3,4-thiadiazol-2-yl)-5-methyl-3,4-dihydro-2(1H)-isoquinolinyl]butanamide] is at most 1000 nM; for `CCCOc1ccc(-c2nc(-c3ccc4c(c3)CCN(C(=O)CN)CC4)no2)cc1C#N` [Example 62, 5-[3-(3-glycyl-2,3,4,5-tetrahydro-1H-3-benzazepin-7-yl)-1,2,4-oxadiazol-5-yl]-2-(propyloxy)benzonitrile] it is at most 100 nM.
`Cc1c(-c2noc(-c3ccc(OC(C)C)c(C#N)c3)n2)ccc2c1CCN(C(=O)[C@](C)(N)CO)C2` [Example 85, 2-[(1-methylethyl)oxy]-5-{3-[5-methyl-2-(2-methyl-D-seryl)-1,2,3,4-tetrahydro-6-isoquinolinyl]-1,2,4-oxadiazol-5-yl}benzonitrile] had an EC50 under setting [1] of at most 100 nM.
As to `CCOc1ccc(-c2nc(-c3ccc4c(c3)CCN(C(=O)CN)CC4)no2)cc1C#N` [Example 61, 2-(ethyloxy)-5-[3-(3-glycyl-2,3,4,5-tetrahydro-1H-3-benzazepin-7-yl)-1,2,4-oxadiazol-5-yl]benzonitrile], under setting [1], the EC50 was at most 100 nM.
`CNC(=O)CCN1CCc2c(ccc(-c3nnc(-c4ccc(OC(C)C)c(C#N)c4)s3)c2C)C1` [Example 11, 3-[6-(5-{3-Cyano-4-[(1-methylethyl)oxy]phenyl}-1,3,4-thiadiazol-2-yl)-5-methyl-3,4-dihydro-2(1H)-isoquinolinyl]-N-methylpropanamide] gave an EC50 under setting [1] of at most 100 nM.
Still for that read-out and setting: the figure for `CC(C)Oc1ccc(-c2nc(-c3ccc4c(c3)CCN(C(=O)CN[C@@H](C)CO)CC4)no2)cc1C#N` [Example 99, 5-[3-(3-{N-[(1S)-2-hydroxy-1-methylethyl]glycyl}-2,3,4,5-tetrahydro-1H-3-benzazepin-7-yl)-1,2,4-oxadiazol-5-yl]-2-[(1-methylethyl)oxy]benzonitrile hydrochloride] is at most 10 nM.
For `Cc1c(-c2nnc(-c3ccc(OC(C)C)c(C#N)c3)s2)ccc2c1CCN(CC(O)CO)C2` (stereo not drawn) [Example 18, 5-{5-[2-(2,3-Dihydroxypropyl)-5-methyl-1,2,3,4-tetrahydro-6-isoquinolinyl]-1,3,4-thiadiazol-2-yl}-2-[(1-methylethyl)oxy]benzonitrile], the EC50 (S1P1 GTPγS assay, first format, [35S]-GTPγS 0.5 nM) is 2000 nM and the half-maximal effective concentration (EC50) under setting [1] is over 10000 nM.
For the molecule `CC(C)Oc1ncc(-c2nc(-c3ccc4c(c3)CCN(CC(O)CO)CC4)no2)cc1C#N` (stereo in doubt) [Example 97, 5-(3-{3-[(2R)-2,3-dihydroxypropyl]-2,3,4,5-tetrahydro-1H-3-benzazepin-7-yl}-1,2,4-oxadiazol-5-yl)-2-[(1-methylethyl)oxy]-3-pyridinecarbonitrile], the EC50 under setting [1] was at most 100 nM.
Take `CNC(=O)CCN1CCc2c(cccc2-c2nnc(-c3ccc(OC(C)C)c(C#N)c3)s2)C1` [Example 45, 3-[5-(5-{3-cyano-4-[(1-methylethyl)oxy]phenyl}-1,3,4-thiadiazol-2-yl)-3,4-dihydro-2(1H)-isoquinolinyl]-N-methylpropanamide]: the concentration for a half-maximal effect (EC50) under setting [1] is over 10000 nM.
The same measure, in the same setting: next, `CC(C)Oc1ccc(-c2nc(-c3ccc4c(c3)CCN(CCO)CC4)no2)cc1C#N` [Example 19, 5-{3-[3-(2-Hydroxyethyl)-2,3,4,5-tetrahydro-1H-3-benzazepin-7-yl]-1,2,4-oxadiazol-5-yl}-2-[(1-methylethyl)oxy]benzonitrile]: at most 100 nM.

For the origin of these results see patent US20120101083A1, “S1P1 AGONISTS COMPRISING A BICYCLIC N-CONTAINING RING” (GLAXO GROUP LIMITED, priority 2009, published 2012).
